Our source for the alveolar bone loss values is patent publication US10730826B2, “Ketone inhibitors of lysine gingipain” (CORTEXYME, INC., priority 2016, dated 2020).

In this experiment the test system is P. gingivalis W83. Description: Mouse periodontitis model, alveolar bone loss. It counts as in vivo, BALB/C mice. Conditions: week 5-10. The protocol:
At the beginning of the study, eight week old BALB/C female mice received antibiotic in drinking water (sulfamethoxazolum 0.87 mg/mL, trimethoprimum 0.17 mg/mL) for 10 days to reduce microbiome protection from experiment infection. Experimental periodontitis was induced by ligature placement followed by multiple exposures to P. gingivalis. During the ligature procedure mice were anesthetized with an intraperitoneal injection of ketamine (200 mg/kg) and xylazine (10 mg/kg), and eyes were lubricated with ointment (Puralube Vet; Pharmaderm, Melville, N.Y.). Next, a 5-0 silk ligature (Roboz Surgical Instrument Co.) was tied around the upper maxillary left and right second molar. Sutures were applied and tied gently to prevent damage to the periodontal tissue.
Mice (n=8-10/arm) were infected for 6 weeks every other day. For infection, […]. of bacteria solution were applied topically to the buccal surface of the maxillae. For preparation of the bacteria, P. gingivalis W83 (ATCC, Rockville, Md.) was streaked on Tryptic Soy Broth (TSB) agar plates (5% sheep blood, supplemented with 0.5 mg/mL L-cysteine, 5 μg/mL hemin, and 0.5 μg/mL vitamin K) and grown under anaerobic conditions at 37° C. for 5-7 days. Samples were then inoculated in TSB with hemin, vitamin K and L-cysteine (TSB-HKC) until mid-log phase (OD600=0.5-0.7). Bacteria were washed in PBS and prepared at final concentration of 1×10^10 cells/mL in PBS+2% methylcellulose (CMC).
Vehicle-treated animals received PBS only. At 5 weeks, a subgroup of animals (n=16) were euthanized to gather baseline measurements before the start of treatment. After 10 weeks, mice were euthanized and the brain, serum, and maxillary tissues were harvested and frozen in liquid nitrogen.
Bone loss in the maxillae was measured ex vivo blinded using OsiriX MD software (PixmeoSARL, Bernex, Switzerland). […] The distance between the cementoenamel junction (CEJ) and the alveolar bone crest (ABC) was measured from the CEJ to a reference line on the ABC which was placed perpendicular to the superficial root one each side of the second molar. […]

Regarding `NCCCC[C@H](NC(=O)C1CCCC1)C(=O)COc1c(F)ccc(F)c1F` [Compound 1, (S)—N-(7-amino-2-oxo-1-(2,3,6-trifluorophenoxy)heptan-3-yl)cyclopentanecarboxamide], the alveolar bone loss result is given as “trended to improvement but did not result in significant improvement” (3 mg/kg oral b.i.d.), “improved” (10 mg/kg oral b.i.d.) and “improved” (30 mg/kg oral b.i.d.).
